What follows are molecules tested on HCV 1b-Con1 replicon (assay: HCV 1b-Con1 replicon assay in the presence of 5% FBS). Details: Hepatitis C virus.
Type: cell-based
`COC(=O)N[C@H](C(=O)N1CCC[C@H]1c1nc2cc(F)c([C@H]3CC[C@H](c4cc5[nH]c([C@@H]6CCCN6C(=O)[C@@H](NC(=O)OC)C6CCOCC6)nc5cc4F)N3c3cc(F)c(N4CCN(c5ccc(C(F)(F)F)cc5)CC4)c(F)c3)cc2[nH]1)C1CCOCC1` [Example 4.46, dimethyl ([(2R,5R)-1-(3,5-difluoro-4-{4-[4-(trifluoromethyl)phenyl]piperazin-1-yl}phenyl)pyrrolidine-2,5-diyl]bis{(5-fluoro-1H-benzimidazole-6,2-diyl)(2S)pyrrolidine-2,1-diyl[(1S)-2-oxo-1-(tetrahydro-2H-pyran-4-yl)ethane-2,1-diyl]})biscarbamate] was tested, and the EC50 was < 0.1 nM. For `COC(=O)N[C@H](C(=O)N1[C@H](c2nc3cc([C@H]4CC[C@H](c5cc6nc([C@@H]7C[C@@H]8CCC[C@@H]8N7C(=O)[C@@H](NC(=O)OC)[C@@H](C)OC)[nH]c6cc5F)N4c4cc(F)c(N5CCCCC5)c(F)c4)c(F)cc3[nH]2)C[C@@H]2CCC[C@@H]21)[C@@H](C)OC` [Example 3.38, methyl {(2S,3R)-1-[(2S,3aS,6aS)-2-{5-[(2R,5R)-1-[3,5-difluoro-4-(piperidin-1-yl)phenyl]-5-(6-fluoro-2-{(2S,3aS,6aS)-1-[N-(methoxycarbonyl)-O-methyl-L-threonyl]octahydrocyclopenta[b]pyrrol-2-yl}-1H-benzimidazol-5-yl)pyrrolidin-2-yl]-6-fluoro-1H-benzimidazol-2-yl}hexahydrocyclopenta[b]pyrrol-1(2H)-yl]-3-methoxy-1-oxobutan-2-yl}carbamate], the EC50 was < 0.1 nM. For `COC(=O)N[C@H](C(=O)N1CCC[C@H]1c1nc2cc([C@@H]3CC[C@@H](c4ccc5[nH]c([C@@H]6CCCN6C(=O)[C@@H](NC(=O)OC)[C@@H](C)OC)nc5c4)N3c3ccc(C4CC4)cc3)ccc2[nH]1)[C@@H](C)OC` [Example 4.14, methyl {(2S,3R)-1-[(2S)-2-{5-[(2S,55)-1-(4-cyclopropylphenyl)-5-(2-{(2S)-1-[N-(methoxycarbonyl)-O-methyl-L-threonyl]pyrrolidin-2-yl}-1H-benzimidazol-5-yl)pyrrolidin-2-yl]-1H-benzimidazol-2-yl}pyrrolidin-1-yl]-3-methoxy-1-oxobutan-2-yl}carbamate], the EC50 was < 0.1 nM. `COC(=O)N[C@H](C(=O)N1CCC[C@H]1c1nc2cc([C@H]3CC[C@H](c4cc5nc([C@@H]6CCCN6C(=O)[C@@H](NC(=O)OC)C(C)C)[nH]c5cc4F)N3c3cc(F)c(N4CCC(c5ccc6ccccc6c5)CC4)c(F)c3)c(F)cc2[nH]1)C(C)C` [Example 4.30, methyl {(2S)-1-[(2S)-2-{5-[(2R,5R)-1-{3,5-difluoro-4-[4-(2-naphthyl)piperidin-1-yl]phenyl}-5-{6-fluoro-2-[(2S)-1-{(2S)-2-[(methoxycarbonyl)amino]-3-methylbutanoyl}pyrrolidin-2-yl]-1H-benzimidazol-5-yl}pyrrolidin-2-yl]-6-fluoro-1H-benzimidazol-2-yl}pyrrolidin-1-yl]-3-methyl-1-oxobutan-2-yl}carbamate] was tested, and the EC50 was < 0.1 nM. With `COC(=O)N[C@H](C(=O)N1CCC[C@H]1c1nc2cc([C@H]3CC[C@H](c4ccc5[nH]c([C@@H]6CCCN6C(=O)[C@@H](NC(=O)OC)C(C)C)nc5c4)N3c3cc(F)c(N4CCC(F)(F)CC4)c(F)c3)ccc2[nH]1)C(C)C` [Example 1.5, methyl {(2S)-1-[(2S)-2-{5-[(2R,5R)-1-[4-(4,4-difluoropiperidin-1-yl)-3,5-difluorophenyl]-5-{2-[(2S)-1-{(2S)-2-[(methoxycarbonyl)amino]-3-methylbutanoyl}pyrrolidin-2-yl]-1H-benzimidazol-5-yl}pyrrolidin-2-yl]-1H-benzimidazol-2-yl}pyrrolidin-1-yl]-3-methyl-1-oxobutan-2-yl}carbamate] the EC50 was < 0.1 nM. For `COC(=O)N[C@H](C(=O)N1CCC[C@H]1c1nc2c(F)c([C@H]3CC[C@@H](c4ccc5nc([C@@H]6CCCN6C(=O)[C@@H](NC(=O)OC)C(C)C)[nH]c5c4F)N3c3ccc(C(C)(C)C)cc3)ccc2[nH]1)C(C)C` [Example 6.4, methyl {(2S)-1-[(2S)-2-{5-[(2R,5S)-1-(4-tert-butylphenyl)-5-{7-fluoro-2-[(2S)-1-{(2S)-2-[(methoxycarbonyl)amino]-3-methylbutanoyl}pyrrolidin-2-yl]-1H-benzimidazol-6-yl}pyrrolidin-2-yl]-4-fluoro-1H-benzimidazol-2-yl}pyrrolidin-1-yl]-3-methyl-1-oxobutan-2-yl}carbamate], the EC50 was < 0.1 nM. With `COC(=O)N[C@H](C(=O)N1CCCC1c1nc2cc([C@H]3CC[C@H](c4ccc5[nH]c([C@@H]6CCCN6)nc5c4)N3c3ccc(C(C)(C)C)cc3)ccc2[nH]1)C(C)C` (stereo partly drawn) [Example 4.20, methyl [(2S)-1-(2-{5-[(2R,5R)-1-(4-tert-butylphenyl)-5-{2-[(2S)-pyrrolidin-2-yl]-1H-benzimidazol-5-yl}pyrrolidin-2-yl]-1H-benzimidazol-2-yl}pyrrolidin-1-yl)-3-methyl-1-oxobutan-2-yl]carbamate] the EC50 was < 0.1 nM. `COC(=O)N[C@H](C(=O)N1CCC[C@H]1c1nc2cc([C@H]3CC[C@H](c4ccc5[nH]c([C@@H]6CCCN6C(=O)[C@@H](NC(=O)OC)[C@@H](C)OC)nc5c4)N3c3cc(F)c(N4CCC(c5ccccc5)CC4)c(F)c3)ccc2[nH]1)[C@@H](C)OC` [Example 5.3, methyl {(2S,3R)-1-[(2S)-2-{5-[(2R,5R)-1-[3,5-difluoro-4-(4-phenylpiperidin-1-yl)phenyl]-5-(2-{(2S)-1-[N-(methoxycarbonyl)-O-methyl-L-threonyl]pyrrolidin-2-yl}-1H-benzimidazol-5-yl)pyrrolidin-2-yl]-1H-benzimidazol-2-yl}pyrrolidin-1-yl]-3-methoxy-1-oxobutan-2-yl}carbamate] was tested, and the EC50 was < 0.1 nM. For `COC(=O)N[C@H](C(=O)N1CCC[C@H]1c1nc2cc([C@H]3CC[C@H](c4ccc5[nH]c([C@@H]6CCCN6C(=O)[C@@H](NC(=O)OC)C(C)C)nc5c4)N3c3cc(F)c(N4C[C@H]5CCCC[C@H]5C4)c(F)c3)ccc2[nH]1)C(C)C` [Example 4.3, methyl {(2S)-1-[(2S)-2-{5-[(2R,5R)-1-{3,5-difluoro-4-[(3aR,7aS)-octahydro-2H-isoindol-2-yl]phenyl}-5-{2-[(2S)-1-{(2S)-2-[(methoxycarbonyl)amino]-3-methylbutanoyl}pyrrolidin-2-yl]-1H-benzimidazol-5-yl}pyrrolidin-2-yl]-1H-benzimidazol-2-yl}pyrrolidin-1-yl]-3-methyl-1-oxobutan-2-yl}carbamate], the EC50 was < 0.1 nM. `COC(=O)N[C@H](C(=O)N1CCC[C@H]1c1nc2cc([C@H]3CC[C@H](c4ccc5[nH]c([C@@H]6CCCN6C(=O)[C@@H](NC(=O)OC)C(C)C)nc5c4)N3c3cc(F)c(N4CCC(c5ccc(F)cc5)CC4)c(F)c3)ccc2[nH]1)C(C)C` [Example 3.42, methyl {(2S)-1-[(2S)-2-{5-[(2R,5R)-1-{3,5-difluoro-4-[4-(4-fluorophenyl)piperidin-1-yl]phenyl}-5-{2-[(2S)-1-{(2S)-2-[(methoxycarbonyl)amino]-3-methylbutanoyl}pyrrolidin-2-yl]-1H-benzimidazol-5-yl}pyrrolidin-2-yl]-1H-benzimidazol-2-yl}pyrrolidin-1-yl]-3-methyl-1-oxobutan-2-yl}carbamate] was tested, and the EC50 was < 0.1 nM. With `CCOC(=O)N[C@H](C(=O)N1CCC[C@H]1c1nc2cc([C@H]3CC[C@H](c4ccc5[nH]c([C@@H]6CCCN6C(=O)[C@@H](NC(=O)OCC)C(C)C)nc5c4)N3c3cc(F)c(N4CCC(c5ccccc5)CC4)c(F)c3)ccc2[nH]1)C(C)C` [Example 3.34, ethyl {(2S)-1-[(2S)-2-{5-[(2R,5R)-1-[3,5-difluoro-4-(4-phenylpiperidin-1-yl)phenyl]-5-{2-[(2S)-1-{(2S)-2-[(ethoxycarbonyl)amino]-3-methylbutanoyl}pyrrolidin-2-yl]-1H-benzimidazol-5-yl}pyrrolidin-2-yl]-1H-benzimidazol-2-yl}pyrrolidin-1-yl]-3-methyl-1-oxobutan-2-yl}carbamate] the EC50 was < 0.1 nM. `COC(=O)N[C@H](C(=O)N1C[C@H](OC)C[C@H]1c1nc2cc([C@H]3CC[C@H](c4ccc5[nH]c([C@@H]6C[C@@H](OC)CN6C(=O)[C@@H](NC(=O)OC)C(C)C)nc5c4)N3c3cc(F)c(N4CCCCC4)c(F)c3)ccc2[nH]1)C(C)C` [Example 5.5, methyl {(2S)-1-[(2S,4R)-2-{5-[(2R,5R)-1-[3,5-difluoro-4-(piperidin-1-yl)phenyl]-5-{2-[(2S,4R)-4-methoxy-1-{(2S)-2-[(methoxycarbonyl)amino]-3-methylbutanoyl}pyrrolidin-2-yl]-1H-benzimidazol-5-yl}pyrrolidin-2-yl]-1H-benzimidazol-2-yl}-4-methoxypyrrolidin-1-yl]-3-methyl-1-oxobutan-2-yl}carbamate] was tested, and the EC50 was < 0.1 nM. `COC(=O)N[C@H](C(=O)N1CCC[C@H]1c1nc2cc([C@H]3CC[C@@H](c4ccc5[nH]c([C@@H]6CCCN6C(=O)[C@@H](NC(=O)OC)C(C)C)nc5c4)N3c3cc(F)c(C(F)(F)F)cc3F)ccc2[nH]1)C(C)C` [Example 1.3, methyl {(2S)-1-[(2S)-2-{5-[(2S,5R)-1-[2,5-difluoro-4-(trifluoromethyl)phenyl]-5-{2-[(2S)-1-{(2S)-2-[(methoxycarbonyl)amino]-3-methylbutanoyl}pyrrolidin-2-yl]-1H-benzimidazol-5-yl}pyrrolidin-2-yl]-1H-benzimidazol-2-yl}pyrrolidin-1-yl]-3-methyl-1-oxobutan-2-yl}carbamate] was tested, and the EC50 was < 0.1 nM. For `COC(=O)NC(C(=O)N1CCC[C@H]1c1nc2cc([C@H]3CC[C@H](c4ccc5[nH]c([C@@H]6CCCN6C(=O)C(NC(=O)OC)C(C)C)nc5c4)N3c3cc(F)c(N4CCC(F)CC4)c(F)c3)ccc2[nH]1)C(C)C` (stereo partly drawn) [Example 1.6, methyl {1-[(2S)-2-{5-[(2R,5R)-1-[3,5-difluoro-4-(4-fluoropiperidin-1-yl)phenyl]-5-{2-[(2S)-1-{2-[(methoxycarbonyl)amino]-3-methylbutanoyl}pyrrolidin-2-yl]-1H-benzimidazol-5-yl}pyrrolidin-2-yl]-1H-benzimidazol-2-yl}pyrrolidin-1-yl]-3-methyl-1-oxobutan-2-yl}carbamate], the EC50 was < 0.1 nM.

— US20120220562A1, “Anti-Viral Compounds” (ABBOTT LABAORATORIES, priority 2011, published 2012)
